Series [1] has as its system hCMEC/D3 cells. Set-up: method as in number not printed (footnote c: Data taken from the ref). The conditions noted are these: comparison value; ref number not printed (footnote c: Data taken from the ref); cited from earlier work.
Series [2] has as its system U87MG spheroids. The series is described as follows: Morphology and diameter of spheroids after treatment and irradiation (phase contrast). The series is classed as cell-based, human. The conditions noted are these: 90 min treatment, 30 min blue light, 70 h drug-free incubation. As to the method:
We further investigated the effects of treatment and irradiation on tumor spheroids by analyzing the morphology and diameter of spheroids from the U87MG cell line. Morphogenic parameters were assessed using phase contrast microscopy at 24-h intervals during the preformation phase and post-treatment, culminating at 144 h. Initial mean diameters of the spheroids were 280 ± 11 μm, increasing to 550 μm after 70 h of drug-free incubation. U87MG spheroids proliferated rapidly. Rapidly growing tumor cells are generally more sensitive to treatment, whereas quiescent tumor cells are moderately sensitive to metal-based compounds.
The spheroid models underwent treatment with varying concentrations of compounds, focusing on equitoxic concentrations during blue light exposure. The analysis included both irradiated and nonirradiated samples to assess nonspecific toxicity under dark conditions. […]
Figure S30. […] Phase contrast microphotographs were obtained for spheroids generated from U87MG cells (panel A), and the respective mean diameters were analyzed and shown in panel B for U87MG spheroids. […] Mean diameters for dark-incubated samples were analyzed at the same concentrations as those for irradiated samples to assess the impact of irradiation. […]

Series [3] has as its system U87MG spheroids. Nature of the series: Detection of ROS (CellRox) and PPI in spheroids by confocal microscopy. The series is classed as cell-based, human. As to the method: We evaluated ROS induction in glioblastoma U87MG spheroids treated with Ir4 at its IC50 concentration for 3 h, followed by blue laser light irradiation (405 nm, 60 s, 1 mW). ROS levels were quantified using the CellRox probe, with PPI employed to assess immediate cell death. Z-stack imaging was performed before irradiation and at 1, 15, and 30 min postirradiation (Figure , panel I). Mean fluorescence intensity in the z-stack projections quantified ROS generation (Figure , panel II).
The spheroids were exposed to Ir4 (IC50, U87MG 3D, 72 h) for 3 h or maintained under drug-free conditions (control). Subsequently, the samples were stained with CellRox reagent (5 μM) and PPI (8 μg mL^–1) before being irradiated for 60 s with blue laser light (405 nm, 1 mW). Imaging of the samples was conducted before or immediately after the irradiation (1 min postirradiation) and at defined time intervals (15 and 30 min). The fluorescence scanning was performed sequentially in z-stack mode (10 z-stacks). Postirradiation imaging was conducted for a total of 90 min, with only the data collected up to 30 min being presented and quantified. The experiments were independently replicated in triplicate.

A short description of series [4]: Photocatalytic oxidation of NADH under blue light. The conditions noted are these: blue light 465 nm, 4.8 mW cm^–2; NADH 100 µM, complex 5 µM. Type of series: biochemical. As to the method:
Photostability is essential for PDT agents, as photobleaching can compromise their effectiveness. […] Control experiments in the absence of Ir(III) complexes (Figure S24) or light (Figure S25) corroborated the photocatalytic character of this transformation. […] Additionally, singlet oxygen (^1O2) is the primary cytotoxic species in Type II PDT. , The ability of complexes Ir3–Ir5 and Ir10 to generate singlet oxygen was evaluated by measuring the decrease in […] (DPBF) absorbance at 411 nm under blue light irradiation (Figure S26). […] This confirmed the production of hydroxyl radicals, particularly with complexes Ir3 and Ir10, after 8 min of irradiation (Figure S29).
1. Photocatalytic properties of complexes Ir1−Ir10 in cell-free media.
1.1. Photooxidation of NADH.
The ability of the complexes to photocatalyse the oxidation of NADH was evaluated by recording the absorption spectra of NADH (100 µM) in the presence of complex (5 µM) in PBS (5% DMF) upon blue light irradiation (EXPO-Panels from Luzchem (Canadá)) (465 nm, 5.0 […]
1.2. Quantum yields for the generation of 1O2. […]
Where ΦΔR is the reference quantum yield, mR and mS are the slopes of the reference and sample, respectively, and AR and AS are the absorbance of the reference and the sample at the […]

Molecules are shown by their SMILES.

Turning to `Cn1nnc2c(C(N)=O)ncn2c1=O` [Temozolomide, reference compound], the P app in series [1] is on record as 0.36 × 10^–4 cm·s^–1.

As for `CCCCn1c2[n+](c3cc(C(=O)OC)ccc31)[Ir-3]13([Cl])([c]4ccccc4-2)[n+]2ccccc2-c2cc(-c4ccc(C)cc4)cc([n+]21)-c1cccc[n+]13.F[P-](F)(F)(F)(F)F` [Ir4], in series [2], the “effect on spheroid diameter / growth” value was “spheroid diameters decreased below their initial size”. Moreover, the “PPI fluorescence intensity postirradiation” value in series [3] (15 and 30 min postirradiation) is “slight but significant increase”. Besides, the “ROS level compared to preirradiation level, 1 min” value in series [3] (IC50 3 h, 405 nm 60 s 1 mW, 1 min postirradiation) was found to be 1.8 fold. For the same molecule, the “ROS level compared to preirradiation level, 15 min” value in series [3] (IC50 3 h, 405 nm 60 s 1 mW, 15 min postirradiation) came out at 2.3 fold. Further, the “ROS level compared to preirradiation level, 30 min” value in series [3] (IC50 3 h, 405 nm 60 s 1 mW, 30 min postirradiation) was determined as 2.5 fold. The “ROS level versus untreated controls before laser irradiation” value in series [3] (IC50 (U87MG 3D, 72 h) for 3 h, CellRox, dark) came to 1.8 times.

As for `Cc1ccc(-c2cc3[n+]4c(c2)-c2cccc[n+]2[Ir-3]42([Cl])([c]4cc5ccccc5cc4-c4n(Cc5ccc(C(F)(F)F)cc5)c5ccccc5[n+]42)[n+]2ccccc2-3)cc1.F[P-](F)(F)(F)(F)F` [Ir3], in series [4], the “Turnover Frequency (TOF) of NADH photo-oxidation” value is “about 110 h^–1”.

These data come from paper PMC12261233, “Photoactivatable Cyclometalated Ir(III) Compound Penetrates the Blood-Brain Barrier in 3D Spheroidal and Advanced 3D Organoid Models of Inherently Resistant and Aggressive Brain Tumors” (ACS Pharmacology & Translational Science, 2025).
